In ChEMBL document CHEMBL5338723, “Emerging Target-Directed Approaches for the Treatment and Diagnosis of Microbial Infections” (J Med Chem, 2023) one finds MIC and Ratio data, which are given here for seven molecules.

Converted amounts (≈) assume the structure as drawn.

The test system of experiment [1] is Staphylococcus aureus. The experiment in a line: Antibacterial activity against Staphylococcus aureus assessed as microbial growth inhibition. The class given is functional, organism-based.
Experiment [2] relates to Staphylococcus aureus. The experiment in a line: Potency index, ratio of ciprofloxacin MIC to test compound MIC for antimicrobial activity against Staphylococcus aureus. In kind it is functional, organism-based.
Another experiment has as its system Enterococcus faecium. The experiment in a line: Antimicrobial activity against vancomycin-resistant Enterococcus faecium ATCC 51559 assessed as microbial growth inhibition. The class given is functional.
For experiment [3], the system named is Staphylococcus aureus. The experiment in a line: Antimicrobial activity against methicillin-resistant Staphylococcus aureus ATCC 33591 assessed as microbial growth inhibition. In kind it is functional.
Experiment [4] relates to Staphylococcus aureus. The experiment in a line: Antimicrobial activity against vancomycin intermediate Staphylococcus aureus assessed as microbial growth inhibition. In kind it is functional.
The subject of a further experiment is Enterococcus faecalis. The experiment in a line: Antimicrobial activity against vancomycin-resistant Enterococcus faecalis ATCC 51575 assessed as microbial growth inhibition. The class given is functional.
In experiment [5] the test system is Pseudomonas aeruginosa. The experiment in a line: Antibacterial activity against Pseudomonas aeruginosa Pa4 assessed as microbial growth inhibition incubated for 20 hrs in iron depleted media by CLSI protocol based broth microdilution method. In kind it is functional.
The subject of experiment [6] is Pseudomonas aeruginosa. The experiment in a line: Antibacterial activity against Pseudomonas aeruginosa PAO1 assessed as microbial growth inhibition incubated for 20 hrs in iron depleted media by CLSI protocol based broth microdilution method. The class given is functional.
For experiment [7], the system named is Pseudomonas aeruginosa. The experiment in a line: Antibacterial activity against Pseudomonas aeruginosa KW799/61 assessed as microbial growth inhibition incubated for 20 hrs in iron depleted media by CLSI protocol based broth microdilution method. The class given is functional.
Experiment [8] concerns Pseudomonas aeruginosa. The experiment in a line: Antibacterial activity against Wild type Pseudomonas aeruginosa KW799 assessed as microbial growth inhibition incubated for 20 hrs in iron depleted media by CLSI protocol based broth microdilution method. The class given is functional.
The test system of experiment [9] is Acinetobacter baumannii. The experiment in a line: Antimicrobial activity against Acinetobacter baumannii ARC 5079 assessed as microbial growth inhibition. In kind it is functional.
In experiment [10] the test system is Acinetobacter baumannii. The experiment in a line: Antimicrobial activity against Acinetobacter baumannii ATCC 17978 pNT255 assessed as microbial growth inhibition. In kind it is functional.
Experiment [11] has as its system Acinetobacter baumannii. The experiment in a line: Antimicrobial activity against Acinetobacter baumannii ARC 5081 assessed as microbial growth inhibition. The class given is functional.
Experiment [12] concerns Acinetobacter baumannii. The experiment in a line: Antimicrobial activity against Acinetobacter baumannii ATCC BAA 1710 assessed as microbial growth inhibition. In kind it is functional.
Experiment [13] deals with Acinetobacter baumannii. The experiment in a line: Antimicrobial activity against Acinetobacter baumannii ATCC 17978 assessed as microbial growth inhibition. The class given is functional.
For experiment [14], the system named is Acinetobacter baumannii. The experiment in a line: Antimicrobial activity against Acinetobacter baumannii ATCC 17978 pNT221 assessed as microbial growth inhibition. In kind it is functional.
In experiment [15] the test system is Acinetobacter baumannii. The experiment in a line: Antimicrobial activity against Acinetobacter baumannii ATCC BAA 1793 assessed as microbial growth inhibition. The class given is functional.
The test system of experiment [16] is Acinetobacter baumannii. The experiment in a line: Antimicrobial activity against Acinetobacter baumannii ATCC 17978 pNT165 producing carbapenamase assessed as microbial growth inhibition. The class given is functional.
For experiment [17], the system named is Acinetobacter baumannii. The experiment in a line: Antimicrobial activity against Acinetobacter baumannii ARC 3486 assessed as microbial growth inhibition. The class given is functional.
For experiment [18], the system named is Acinetobacter baumannii. The experiment in a line: Antimicrobial activity against Acinetobacter baumannii ARC 3484 assessed as microbial growth inhibition. The class given is functional.
Experiment [19] has as its system Acinetobacter baumannii. The experiment in a line: Antimicrobial activity against Acinetobacter baumannii ATCC BAA 1797 assessed as microbial growth inhibition. The class given is functional.
The test system of experiment [20] is Acinetobacter baumannii. The experiment in a line: Antimicrobial activity against Acinetobacter baumannii ATCC BAA 1800 assessed as microbial growth inhibition. In kind it is functional.
Experiment [21] deals with Acinetobacter baumannii. The experiment in a line: Antimicrobial activity against Acinetobacter baumannii ATCC 17978 pNT320 producing cephalosporinase assessed as microbial growth inhibition. The class given is functional.
For experiment [22], the system named is Acinetobacter baumannii. The experiment in a line: Antimicrobial activity against Acinetobacter baumannii ATCC 17961 assessed as microbial growth inhibition. The class given is functional.
Experiment [23] deals with Escherichia coli. The experiment in a line: Antimicrobial activity against Escherichia coli UTI89 assessed as microbial growth inhibition. In kind it is functional.
The subject of experiment [24] is Escherichia coli. The experiment in a line: Antimicrobial activity against Escherichia coli ATCC 35218 assessed as microbial growth inhibition. In kind it is functional.
For a further experiment, the system named is Salmonella enteritidis. The experiment in a line: Antimicrobial activity against Salmonella enterica subsp. enterica serovar Enteritidis assessed as increase in microbial growth inhibition. The class given is functional.
The test system of the next experiment is Salmonella typhimurium. The experiment in a line: Antimicrobial activity against Salmonella enterica subsp. enterica serovar Typhimurium assessed as increase in microbial growth inhibition. The class given is functional.
For experiment [25], the system named is Mycobacterium tuberculosis. The experiment in a line: Antimicrobial activity against Mycobacterium tuberculosis H37Rv assessed as microbial growth inhibition. In kind it is functional.

Turning to Galbofloxacin, in the experiment on Staphylococcus aureus [1], the MIC was determined as 93 nM. Besides, the Ratio in the experiment with Staphylococcus aureus [2] was determined as 10.

Turning to `CCCCCCCCCCN[C@@]1(C)C[C@H](O[C@H]2[C@H](Oc3c4cc5cc3Oc3ccc(cc3Cl)[C@@H](O)[C@@H](NC(=O)[C@@H](CC(C)C)NC)C(=O)N[C@@H](CC(N)=O)C(=O)N[C@H]5C(=O)N[C@H]3C(=O)N[C@H](C(=O)N[C@H](C(=O)NCCCNC(=O)[C@H](O)[C@@H](O)[C@H](O[C@H]5O[C@@H](CO)[C@@H](O)[C@@H](O)[C@@H]5O)[C@H](O)CO)c5cc(O)cc(O)c5-c5cc3ccc5O)[C@H](O)c3ccc(c(Cl)c3)O4)O[C@H](CO)[C@@H](O)[C@@H]2O)O[C@@H](C)[C@H]1O`, the MIC in the experiment with Enterococcus faecium, in the experiment with Staphylococcus aureus [3], in the experiment on Staphylococcus aureus [4] and in the experiment on Enterococcus faecalis was 0.2 µM (≈ 0.397 µg/mL) throughout.

With `CC(=O)Oc1cccc(C(=O)NCCCC(CCCNC(=O)c2cccc(OC(C)=O)c2OC(C)=O)(CCCNC(=O)c2cccc(OC(C)=O)c2OC(C)=O)NC(=O)CCC(=O)NC(C(=O)NC2C(=O)N3C2SC(C)(C)[C@@H]3C(=O)O)c2ccc(O)cc2)c1OC(C)=O` (stereo partly drawn), the MIC with Pseudomonas aeruginosa [5], in the experiment on Pseudomonas aeruginosa [6], in the experiment with Pseudomonas aeruginosa [7] and with Pseudomonas aeruginosa [8] was 0.05 µM (≈ 0.0655 µg/mL) each time.

On to `CCCCCCCCCC(=O)N[C@@H](Cc1c[nH]c2ccccc12)C(=O)N[C@H](CC(N)=O)C(=O)N[C@@H](CC(=O)O)C(=O)N[C@@H]1C(=O)NCC(=O)N[C@@H](CCCNC(=O)CN(CCCCNC(=O)c2cccc(O)c2O)C(=O)c2cccc(O)c2O)C(=O)N[C@@H](CC(=O)O)C(=O)N[C@H](C)C(=O)N[C@@H](CC(=O)O)C(=O)NCC(=O)N[C@H](CO)C(=O)N[C@@H](C(C)CC(=O)O)C(=O)N[C@@H](CC(=O)c2ccccc2N)C(=O)O[C@@H]1C` (stereo partly drawn), for which the minimal inhibitory concentration (MIC) with Acinetobacter baumannii [9], in the experiment with Acinetobacter baumannii [10], in the experiment with Acinetobacter baumannii [11], in the experiment on Acinetobacter baumannii [12], in the experiment with Acinetobacter baumannii [13] and in the experiment on Acinetobacter baumannii [14] was 0.2 µM (≈ 0.404 µg/mL) throughout. Moreover, the MIC in the experiment with Acinetobacter baumannii [15], in the experiment with Acinetobacter baumannii [16], in the experiment with Acinetobacter baumannii [17], with Acinetobacter baumannii [18], in the experiment with Acinetobacter baumannii [19] and with Acinetobacter baumannii [20] was 0.2 µM (≈ 0.404 µg/mL) throughout. The MIC with Acinetobacter baumannii [21] and in the experiment with Acinetobacter baumannii [22] was 0.2 µM (≈ 0.404 µg/mL) in each case.

For `CCCCCCCCCC(=O)N[C@@H](Cc1c[nH]c2ccccc12)C(=O)N[C@H](CC(N)=O)C(=O)N[C@@H](CC(=O)O)C(=O)N[C@@H]1C(=O)NCC(=O)N[C@@H](CCCNC(=O)CCCC(=O)N(O)CCCCCNC(=O)CCCN(CCCCNC(=O)c2cccc(O)c2O)CCCNC(=O)c2cccc(O)c2O)C(=O)N[C@@H](CC(=O)O)C(=O)N[C@H](C)C(=O)N[C@@H](CC(=O)O)C(=O)NCC(=O)N[C@H](CO)C(=O)N[C@@H](C(C)CC(=O)O)C(=O)N[C@@H](CC(=O)c2ccccc2N)C(=O)O[C@@H]1C` (stereo partly drawn), the MIC in the experiment with Acinetobacter baumannii [9], in the experiment on Acinetobacter baumannii [10], in the experiment on Acinetobacter baumannii [11], with Acinetobacter baumannii [12], with Acinetobacter baumannii [13] and with Acinetobacter baumannii [14] was 0.2 µM (≈ 0.464 µg/mL) in each case. Further, the MIC in the experiment on Acinetobacter baumannii [15], with Acinetobacter baumannii [16], in the experiment on Acinetobacter baumannii [17], in the experiment on Acinetobacter baumannii [18], with Acinetobacter baumannii [19] and in the experiment on Acinetobacter baumannii [20] was 0.2 µM (≈ 0.464 µg/mL) in each case. Also, the MIC in the experiment with Acinetobacter baumannii [21] and with Acinetobacter baumannii [22] was 0.2 µM (≈ 0.464 µg/mL) throughout.

For `C[C@@H](O)[C@H]1C(=O)N2C(C(=O)O)=C(S[C@H]3C[C@@H](C(=O)N(C)C)N(C(=O)CCCc4cn(CCOCCOCCOCCNC(=O)c5cc(O)c(O)c(C(=O)N[C@H]6COC(=O)[C@@H](NC(=O)c7cccc(O)c7O)COC(=O)[C@@H](NC(=O)c7cccc(O)c7O)COC6=O)c5)nn4)C3)[C@H](C)[C@H]12`, the MIC worked out at 0.01 µM (≈ 0.0139 µg/mL) in the experiment with Escherichia coli [23], 0.01 µM (≈ 0.0139 µg/mL) in the experiment with Escherichia coli [24], 0.01 µM in the experiment on Salmonella enteritidis and 0.01 µM in the experiment with Salmonella typhimurium.

Take `Oc1nc2ccccc2nc1O`: in experiment [25], the MIC is above 59.2 µM.
